Measured values as given in article PMC8160210, “Single tryptophan Y160W mutant of homooligomeric E. coli purine nucleoside phosphorylase implies that dimers forming the hexamer are functionally not equivalent” (Scientific Reports, 2021).
Read-outs that look alike come from different tables or passages of the source.

Columns and labels:
Y160W PNP mutant = Y160W PNP mutant (Escherichia coli, UniProt P0ABP8, Y161W); test: Near-UV CD titrations; assay type: binding, E. coli; design: made in house; host or cells: E. coli DH5α-T1; conditions: for Kd: CD titrations with phosphate, three-binding-site model, 25 °C
Chain of Y160W PNP mutant (P0ABP8 2-239 Y161W): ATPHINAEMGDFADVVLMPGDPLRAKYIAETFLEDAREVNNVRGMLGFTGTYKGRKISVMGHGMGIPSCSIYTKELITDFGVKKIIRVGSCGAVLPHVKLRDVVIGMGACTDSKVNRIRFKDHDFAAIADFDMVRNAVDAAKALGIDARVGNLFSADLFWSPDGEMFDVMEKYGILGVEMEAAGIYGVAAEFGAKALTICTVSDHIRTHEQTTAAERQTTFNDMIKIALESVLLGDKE
Method: (§1) Experiments were performed with Chirascan spectrophotometer (Applied Photophysics), in the near UV region (240–290 nm), thus in the region where aromatic amino acids absorb. Full spectra of the protein/complex were recorded, with 0.2 nm resolution and 2 s averaging per point. Enzyme concentration was in the range of 20–120 μM, the 50 mM Tris/HCl buffer pH 7.6 was used, ligands were dissolved in the same buffer. All measurements were performed at 25 °C. Upon addition of each volume of phosphate solution spectrum was recorded in the range 230–300 nm, in the amino acids absorption region, with 0.25 nm step and 2 s per point signal averaging. Spectra were smoothed with Savitzky-Golay algorithm[44] using a fourth degree polynomial and eleven points in the averaging window. The wavelengths of the greatest signal change were determined by calculating differential spectra. These wavelengths were used to plot the titration curves. Global analysis of five to seven curves was performed with DynaFit4[40].
(§2) Three models were taken into account in analysis of binding curves: model with one (first equation below), two (first two equations) and three binding sites. P+L⇔PLwithKd1PL+L⇔PLLwithKd2PLL+L⇔PLLLwithKd3
(§3) The model with one binding site is based on the assumption that all monomers are equivalent, and there is no cooperation between them. In the model with two binding sites the basic functional unit of the protein is a dimer, possible non-equivalence of binding sites or cooperativity between active sites in the dimer are taken into account (in the case of no cooperativity dissociation constants should be related statistically: Kd2 = 4Kd1), the dimers within hexamer are equivalent. The model with three binding sites is based on the crystallographic structures of binary and ternary complexes of PNP with ligands, where two of the dimers are in the “open-closed” conformation, but the third dimer is symmetrical, in the “open-open” conformation. Thus, active sites in the open conformation belonging to “open-closed” and “open-open” dimer may not be equivalent. […]
(§4) Titration series were analysed globally, always starting from the simplest, one-binding-site model. […] For all tested models the Akaike information criterion[23] was also calculated. […] Analysed models were fitted to the raw data, whereas graphs presented in this study were prepared from the normalised data and the fitted curves. […] Responses are defined as changes in a measured physical quantity related to the formation of subsequent protein–ligand complexes: intrinsic protein fluorescence intensity, fluorescence intensity of the dye, heat and ellipticity for fluorimetric, thermophoretic, calorimetric and CD titrations, respectively. […]

WT E. coli PNP = target: T1, WT E. coli PNP (Escherichia coli, UniProt P0ABP8); test: Near-UV CD titrations; assay type: binding; conditions: for Kd: CD titrations with phosphate, three-binding-site model, 25 °C
T1 construct: made in house
T1 sequence (P0ABP8 2-239 limits assumed): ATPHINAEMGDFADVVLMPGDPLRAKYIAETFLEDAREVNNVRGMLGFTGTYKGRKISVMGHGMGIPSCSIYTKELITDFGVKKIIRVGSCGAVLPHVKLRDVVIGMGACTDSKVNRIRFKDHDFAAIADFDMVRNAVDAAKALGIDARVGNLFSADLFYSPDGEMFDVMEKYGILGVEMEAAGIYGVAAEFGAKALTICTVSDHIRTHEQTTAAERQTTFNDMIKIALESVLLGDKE
Method: as §1, §2, §3, §4

Y160W mutant/Pi complex = target: T2, Y160W mutant/Pi complex (Escherichia coli, UniProt P0ABP8, Y161W); test: Calorimetric (ITC) titrations with formycin A; design: species or system E. coli
T2 construct: made in house; host or cells: E. coli DH5α-T1
T2 sequence (P0ABP8 2-239 Y161W, one chain of several): as the sequence (P0ABP8 2-239 Y161W) above
Method: (§5) The isothermal titration experiments were performed on the MicroCal iTC200 (Malvern) microcalorimeter. […] All experiments were carried out at 25°C. For the WT protein series of three calorimetric titrations, with protein concentration in the range of 70 to 800 μM, for the Y160W mutant series of four titration with protein concentration in the range of 300 μM to 1.3 mM were performed. Samples of each protein used for these series came from a single preparation. Ligand samples were 8–12 times more concentrated than the protein sample, in order to achieve a diverse ligand/protein molar ratio during titration and thus better explore binding curves. In some ITC experiments, in order to sample the lower plateau region more accurately, several initial points were measured with less ligand volume added at each step than used in the subsequent titration points measurements. An example of the ITC data is shown in the Supplementary Information (Figure S6). Raw thermograms were analysed with NITPIC[43]. Global analysis of titration curves was performed with Sedphat[20],[21].
as §2
(§6) The model with one binding site is based on the assumption that all monomers are equivalent, and there is no cooperation between them. In the model with two binding sites the basic functional unit of the protein is a dimer, possible non-equivalence of binding sites or cooperativity between active sites in the dimer are taken into account (in the case of no cooperativity dissociation constants should be related statistically: Kd2 = 4Kd1), the dimers within hexamer are equivalent. The model with three binding sites is based on the crystallographic structures of binary and ternary complexes of PNP with ligands, where two of the dimers are in the “open-closed” conformation, but the third dimer is symmetrical, in the “open-open” conformation. Thus, active sites in the open conformation belonging to “open-closed” and “open-open” dimer may not be equivalent. This model takes into account possibility of cooperation between all monomers within a hexameric molecule of the protein (in the case of no cooperativity dissociation constants should be related statistically: Kd3 = 9Kd1, Kd2 = 3Kd1).
(§7) Titration series were analysed globally, always starting from the simplest, one-binding-site model. […] For all tested models the Akaike information criterion[23] was also calculated. Generally both criteria used in the discrimination analysis were pointing the same model as best describing the data. The only exception was thermophoretic titration of the WT protein with formycin A, and it is described in details in the Results. Analysed models were fitted to the raw data, whereas graphs presented in this study were prepared from the normalised data and the fitted curves. The parameters of the fit are dissociation constants and responses of the system. Responses are defined as changes in a measured physical quantity related to the formation of subsequent protein–ligand complexes: intrinsic protein fluorescence intensity, fluorescence intensity of the dye, heat and ellipticity for fluorimetric, thermophoretic, calorimetric and CD titrations, respectively. Responses are normalised for the protein concentration present in the titration, thus giving molar coefficients.

WT PNP/Pi complex = target: T3, WT PNP/Pi complex (Escherichia coli, UniProt P0ABP8); test: Calorimetric (ITC) titrations with formycin A; design: species or system E. coli
T3 construct: made in house
Method: as §5, §2, §6, §7

[1] = 50 mM Tris/HCl pH 7.6, read-out: Kd1 ± SD
[2] = 50 mM Tris/HCl pH 7.6, read-out: Kd2 ± SD
[3] = 50 mM Tris/HCl pH 7.6, read-out: Kd3 ± SD

SMILES | Change in CD signal upon binding (Y160W PNP mutant; formycin A binding) | Change in CD signal upon binding (WT E. coli PNP; formycin A binding) | Kd (Y160W mutant/Pi complex; Kd1 ± SD, three-binding-site model, 50 mM phosphate, pH 7.6, 25 °C) [µM] | Kd (Y160W mutant/Pi complex; Kd3 ± SD, three-binding-site model, 50 mM phosphate, pH 7.6, 25 °C) [µM] | Kd (Y160W mutant/Pi complex; read-out: Kd2 ± SD, three-binding-site model, 50 mM phosphate, pH 7.6, 25 °C) [µM] | Kd (WT PNP/Pi complex; Kd1 ± SD, three-binding-site model, 50 mM phosphate, pH 7.6, 25 °C, values to be treated as estimates) [µM] | Kd (WT PNP/Pi complex; Kd3 ± SD, three-binding-site model, 50 mM phosphate, pH 7.6, 25 °C, values to be treated as estimates) [µM] | Kd (WT PNP/Pi complex; read-out: Kd2 ± SD, three-binding-site model, 50 mM phosphate, pH 7.6, 25 °C, values to be treated as estimates) [µM] | Kd (Y160W PNP mutant; [1]) [µM] | Kd (Y160W PNP mutant; [2]) [µM] | Kd (Y160W PNP mutant; [3]) [µM] | Kd (WT E. coli PNP; [1]) [µM] | Kd (WT E. coli PNP; [2]) [µM] | Kd (WT E. coli PNP; [3]) [µM]
Nc1ncnc2c([C@@H]3O[C@H](CO)[C@@H](O)[C@H]3O)[nH]nc12 [FA, Formycin A] | no changes in the CD signal | no changes in the CD signal | 6.75 | 655 | 149 | 8.9 | 812 | 55 |  |  |  |  |  | 
O=P(O)(O)O [Pi, Orthophosphate] |  |  |  |  |  |  |  |  | 4.13 | 128 | 2330 | 0.58 | 107 | 1030
